Values quoted from earlier work in article PMC7033111, “Rational design of novel benzisoxazole derivatives with acetylcholinesterase inhibitory and serotoninergic 5-HT4 receptors activities for the treatment of Alzheimer’s disease” (Scientific Reports, 2020).

What was measured:
5-HT4R = conditions: cited from earlier work
h5-HT4eR = conditions: donecopride reference value; read-out: 5-HT4R Ki; cited from earlier work
[1] = set-up: method as in PMID 25157130; conditions: mice; cited from earlier work
hAChE = system: hAChE; set-up: method as in PMID 25157130; conditions: donecopride reference value; cited from earlier work

In the case of `COc1cc(N)c(Cl)cc1C(=O)CCC1CCN(CC2CCCCC2)CC1` [donecopride], the “% of control agonist response (5-HT4R)” value (5-HT4R) is listed as 48%, the Ki (h5-HT4eR) is listed as 8.5 ± 0.3 nM and the “in vivo effects, object recognition test” value [1] is listed as “improvement of memory performances”. For the same molecule, the IC50 (hAChE) was 16 ± 5 nM.
